Assays:
human 5-HT2AR = molecular target: T1, human 5-HT2AR (Homo sapiens, UniProt P28223); experiment: HTRF-based IP1 accumulation assay (5-HT2AR antagonistic effect); type: cell-based; conditions: HEK293 cells overexpressing human 5-HT2AR; serotonin at EC80
T1 construct: expressed in transfected cells; host or cells: HEK293
Protocol: The 5-HT2AR antagonistic effect of the test compounds was confirmed by measuring the production amount of IP1 using the HEK293 cell line permanently overexpressing the human 5-HT2AR. The test compounds were dissolved in 100% DMSO to a final concentration of 10 mM. The starting concentration of 10 μM was prepared from the stock solution, followed by serial dilutions to prepare working solutions in a buffer containing lithium chloride (LiCl). The cells and compounds prepared in the test buffer were placed in a 96-well plate and incubated at room temperature for 10 minutes. Serotonin of EC80 concentration was added, followed by incubation at 37° C. for 30 minutes in a light-shielding state. To measure IP1 accumulation in cells, JP1-d2 acceptor and IP1-Cryptate donor-which are HTRF-based substances for fluorescence signals-were added and incubated for 1 hour at room temperature in a light-shielded state. The fluorescent emission signals of acceptor and donor were detected, and HTRF ratio values were substracted by mean value of serotonin control. The percentage of activation was calculated by normalization of the serotonin control (0%) and IP1 control (100%). The IC50 values of the test compounds are represented in Table 1. (+: 1,000-2,000 nM, ++: 500-1,000 nM, +++: 100-500 nM, ++++: less than 100 nM).

mGluR5 = molecular target: T2, mGluR5 (Homo sapiens, UniProt P41594); experiment: Fluorescence-based Ca2+ mobilization assay; type: cell-based; conditions: HEK293 cells overexpressing mGluR5; L-glutamate at EC80
T2 construct: expressed in transfected cells; host or cells: HEK293
Protocol: In order to measure the activity on the mGluR5, an experiment was carried out to check the change in the intracellular Ca^2+ level using the HEK293 cell line permanently overexpressing the mGluR5. The cells in the cell culture medium were aliquoted into a 384-well plate coated with poly-D-lysine and cultured in a 37° C. incubator supplied with 5% CO2. The next day, the medium was removed and a dye loading buffer—in which a reagent capable of measuring Ca^2+ was dissolved—was added, and then incubated at 37° C. for 60 minutes. The test compounds were dissolved in 100% DMSO at a final concentration of 10 mM to make a stock solution. The starting concentration of […] was prepared from the stock solution, followed by serial dilutions to prepare working solutions (test compound working solutions). The test compound working solutions were added to the cells that were incubated in the dye loading buffer, which were maintained for 30 minutes at room temperature in a light-shielding state before measurement. The Ca^2+ level change induced by L-glutamate at EC80 concentration was measured for 2 minutes using FLIPR Tetra (MDS Analytical Technologies). The fluorescent Ca^2+ signal values in the presence of the test compounds were normalized to the fluorescent signal elicited by […] concentration of L-glutamate as 100% and that elicited by vehicle as 0% to estimate % inhibition of the test compounds. The efficacy of the test compounds was calculated as IC50 values and represented in Table 1. (+: 1,000-2,000 nM, ++: 500-1,000 nM, +++: 100-500 nM, ++++: less than 100 nM).

T2 sequence (P41594 21-1212): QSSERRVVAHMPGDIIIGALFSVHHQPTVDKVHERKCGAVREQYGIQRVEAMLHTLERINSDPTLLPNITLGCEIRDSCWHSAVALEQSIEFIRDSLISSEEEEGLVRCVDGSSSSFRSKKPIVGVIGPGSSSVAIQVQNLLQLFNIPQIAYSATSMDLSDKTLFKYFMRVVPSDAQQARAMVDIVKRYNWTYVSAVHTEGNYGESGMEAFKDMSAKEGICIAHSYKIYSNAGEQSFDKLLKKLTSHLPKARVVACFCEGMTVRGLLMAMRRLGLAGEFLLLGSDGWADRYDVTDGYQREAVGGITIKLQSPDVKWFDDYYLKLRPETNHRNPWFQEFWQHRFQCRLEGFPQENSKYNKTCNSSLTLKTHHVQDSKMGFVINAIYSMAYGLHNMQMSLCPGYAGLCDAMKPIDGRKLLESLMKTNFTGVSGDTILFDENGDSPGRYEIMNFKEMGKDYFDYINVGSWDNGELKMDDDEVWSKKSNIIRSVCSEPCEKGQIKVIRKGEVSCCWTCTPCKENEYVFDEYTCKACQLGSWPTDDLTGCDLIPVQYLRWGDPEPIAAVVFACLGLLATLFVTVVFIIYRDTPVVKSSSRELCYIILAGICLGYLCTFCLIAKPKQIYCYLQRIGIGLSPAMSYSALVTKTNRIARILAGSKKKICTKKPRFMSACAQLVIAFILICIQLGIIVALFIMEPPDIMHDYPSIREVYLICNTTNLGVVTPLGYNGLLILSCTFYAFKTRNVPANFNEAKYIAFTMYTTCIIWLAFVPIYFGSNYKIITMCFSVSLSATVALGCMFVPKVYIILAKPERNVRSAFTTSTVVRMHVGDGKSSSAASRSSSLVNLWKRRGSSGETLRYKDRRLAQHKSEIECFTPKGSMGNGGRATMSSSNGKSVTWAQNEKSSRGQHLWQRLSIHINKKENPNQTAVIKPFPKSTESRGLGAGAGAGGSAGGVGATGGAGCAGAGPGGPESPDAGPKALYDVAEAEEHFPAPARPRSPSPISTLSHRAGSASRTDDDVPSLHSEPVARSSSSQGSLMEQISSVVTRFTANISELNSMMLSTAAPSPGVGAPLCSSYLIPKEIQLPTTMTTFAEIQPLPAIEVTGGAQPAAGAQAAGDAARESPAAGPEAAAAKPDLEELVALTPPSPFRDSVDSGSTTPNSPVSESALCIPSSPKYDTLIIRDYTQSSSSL
T1 sequence (P28223 whole entry): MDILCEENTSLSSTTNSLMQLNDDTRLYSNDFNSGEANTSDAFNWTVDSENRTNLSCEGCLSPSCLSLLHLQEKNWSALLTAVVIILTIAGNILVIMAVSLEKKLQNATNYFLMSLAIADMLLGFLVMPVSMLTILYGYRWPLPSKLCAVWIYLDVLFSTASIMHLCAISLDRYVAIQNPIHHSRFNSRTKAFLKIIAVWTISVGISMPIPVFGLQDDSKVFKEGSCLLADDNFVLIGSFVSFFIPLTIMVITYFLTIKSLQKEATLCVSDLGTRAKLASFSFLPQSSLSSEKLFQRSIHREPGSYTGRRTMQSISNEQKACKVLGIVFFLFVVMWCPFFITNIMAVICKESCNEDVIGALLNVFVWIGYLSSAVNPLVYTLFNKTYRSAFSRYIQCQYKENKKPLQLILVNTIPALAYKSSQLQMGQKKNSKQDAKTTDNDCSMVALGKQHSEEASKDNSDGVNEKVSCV

Structure (SMILES) | IC50 (human 5-HT2AR) | IC50 (mGluR5)
O=C(NCC1(NC2CC2)CCC1)c1ccc(C#Cc2ccc(F)cn2)cc1 [Example 4, N-((1-(cyclopropylamino)cyclobutyl)methyl)-4-((5-fluoropyridin-2-yl)ethynyl)benzamide] | 100 to 500 nM | 1000 to 2000 nM
O=C(NCC1(NC2CC2)CCC1)c1ccc(C#Cc2ccc(F)cc2)cc1 [Example 6, N-((1-(cyclopropylamino)cyclobutyl)methyl)-4-((4-fluorophenyl)ethynyl)benzamide] | < 100 nM | 500 to 1000 nM
O=C(NCC1(NC2CC2)CCC1)c1ccc(C#Cc2ccncc2)c(F)c1 [Example 7, N-((1-(cyclopropylamino)cyclobutyl)methyl)-3-fluoro-4-(pyridin-4-ylethynyl)benzamide] | 100 to 500 nM | 1000 to 2000 nM
O=C(NCC1(NC2CC2)CCC1)c1ccc(C#Cc2ccccn2)cc1 [Example 8, N-((1-(cyclopropylamino)cyclobutyl)methyl)-4-(pyridin-2-ylethynyl)benzamide] | 1000 to 2000 nM | 500 to 1000 nM
O=C(NCC1(NC2CC2)CCCC1)c1ccc(C#Cc2ccc(F)cc2)cc1 [Example 13, N-((1-(cyclopropylamino)cyclopentyl)methyl)-4-((4-fluorophenyl)ethynyl)benzamide] | < 100 nM | 500 to 1000 nM
O=C(NCC1(NC2CC2)CCCCCC1)c1ccc(C#Cc2ccc(F)cc2)cc1 [Example 14, N-((1-(cyclopropylamino)cycloheptyl)methyl)-4-((4-fluorophenyl)ethynyl)benzamide] | < 100 nM | 100 to 500 nM
O=C(NCC1(NC2CC2)CCCCCC1)c1ccc(C#Cc2ccc(F)cn2)cc1 [Example 15, N-((1-(cyclopropylamino)cycloheptyl)methyl)-4-((5-fluoropyridin-2-yl)ethynyl)benzamide] | 100 to 500 nM | 500 to 1000 nM
O=C(NCC1(NC2CC2)CCCC1)c1ccc(C#Cc2ccc(F)c(F)c2)cc1 [Example 17, N-((1-(cyclopropylamino)cyclopentyl)methyl)-4-((3,4-difluorophenyl)ethynyl)benzamide] | 100 to 500 nM | 1000 to 2000 nM
O=C(NCC1(NC2CC2)CCCCCC1)c1ccc(C#Cc2ccc(F)c(F)c2)cc1 [Example 18, N-((1-(cyclopropylamino)cycloheptyl)methyl)-4-((3,4-difluorophenyl)ethynyl)benzamide] | 500 to 1000 nM | 1000 to 2000 nM
O=C(NCC1(NC2CC2)CCCCC1)c1ccc(C#Cc2ccc(F)cc2)cc1 [Example 19, N-((1-(cyclopropylamino)cyclohexyl)methyl)-4-((4-fluorophenyl)ethynyl)benzamide] | < 100 nM | 1000 to 2000 nM
Cc1cc(C#Cc2ccc(C(=O)NCC3(NC4CC4)CCCC3)cc2)ccn1 [Example 21, N-((1-(cyclopropylamino)cyclopentyl)methyl)-4-((2-methylpyridin-4-yl)ethynyl)benzamide] | 500 to 1000 nM | 1000 to 2000 nM
O=C(NCC1(N2CCOCC2)CCCC1)c1ccc(C#Cc2ccccc2F)cc1 [Example 23, 4-((2-fluorophenyl)ethynyl)-N-((1-morpholinocyclopentyl)methyl)benzamide] | 100 to 500 nM | 500 to 1000 nM
CC(C)NC1(CNC(=O)c2ccc(C#Cc3ccccc3F)cc2)CCOCC1 [Example 24, 4-((2-fluorophenyl)ethynyl)-N-((4-(isopropylamino)tetrahydro-2H-pyran-4-yl)methyl)benzamide] | 100 to 500 nM | 100 to 500 nM
CC1CCC(CNC(=O)c2ccc(C#Cc3ccccc3F)cc2)(NC2CC2)CC1 (centres unmarked) [Example 26, N-((1-(cyclopropylamino)-4-methylcyclohexyl)methyl)-4-((2-fluorophenyl)ethynyl)benzamide] | < 100 nM | 1000 to 2000 nM
CC(C)(C)CNC1(CNC(=O)c2ccc(C#Cc3ccccc3F)cc2)CCCCC1 [Example 28, 4-((2-fluorophenyl)ethynyl)-N-((1-(neopentylamino)cyclohexyl)methyl)benzamide] | 100 to 500 nM | 1000 to 2000 nM

Results, then the compound that gave them:

IC50 (human 5-HT2AR) | IC50 (mGluR5) | Structure (SMILES)
100 to 500 nM | 100 to 500 nM | O=C(NCC1(CC2CC2)CCOCC1)c1ccc(C#Cc2ccccc2F)cc1 [Example 29, N-((4-(cyclopropylmethyl)tetrahydro-2H-pyran-4-yl)methyl)-4-((2-fluorophenyl)ethynyl)benzamide]
< 100 nM | 500 to 1000 nM | CC(C)NC1(CNC(=O)c2ccc(C#Cc3ccccc3F)cc2)CCCC1 [Example 30, 4-((2-fluorophenyl)ethynyl)-N-((1-(isopropylamino)cyclopentyl)methyl)benzamide]
1000 to 2000 nM | 1000 to 2000 nM | O=C(NCC1(NCC(F)(F)F)CCCCC1)c1ccc(C#Cc2ccncc2)cc1 [Example 31, 4-(pyridin-4-ylethynyl)-N-((1-((2,2,2-trifluoroethyl)amino)cyclohexyl)methyl)benzamide]
500 to 1000 nM | < 100 nM | O=C(NCC1(O)CCCCC1)c1ccc(C#Cc2ccccc2F)cc1 [Example 32, 4-((2-fluorophenyl)ethynyl)-N-((1-hydroxycyclohexyl)methyl)benzamide]
1000 to 2000 nM | 100 to 500 nM | O=C(NCC1CCOCC1)c1ccc(C#Cc2ccc(F)cc2)cc1 [Example 33, 4-((4-fluorophenyl)ethynyl)-N-((tetrahydro-2H-pyran-4-yl)methyl)benzamide]
1000 to 2000 nM | 500 to 1000 nM | O=C(NCC1(c2cccnc2)CCCC1)c1ccc(C#Cc2ccccc2F)cc1 [Example 34, 4-((2-fluorophenyl)ethynyl)-N-((1-(pyridin-3-yl)cyclopentyl)methyl)benzamide]
1000 to 2000 nM | < 100 nM | O=C(NCC1CCOCC1)c1ccc(C#Cc2ccccc2F)cc1F [Example 35, 2-fluoro-4-((2-fluorophenyl)ethynyl)-N-((tetrahydro-2H-pyran-4-yl)methyl)benzamide]
500 to 1000 nM | < 100 nM | CC1(CNC(=O)c2ccc(C#Cc3ccccc3F)cc2)CCOCC1 [Example 36, 4-((2-fluorophenyl)ethynyl)-N-((4-methyltetrahydro-2H-pyran-4-yl)methyl)benzamide]
500 to 1000 nM | 100 to 500 nM | O=C(NCC1(CO)CCOCC1)c1ccc(C#Cc2ccccc2F)cc1 [Example 38, 4-((2-fluorophenyl)ethynyl)-N-((4-(hydroxymethyl)tetrahydro-2H-pyran-4-yl)methyl)benzamide]
100 to 500 nM | < 100 nM | C[C@@H](NC(=O)c1ccc(C#Cc2ccccc2F)cc1)C1CCOCC1 [Example 47, (R)-4-((2-fluorophenyl)ethynyl)-N-(1-(tetrahydro-2H-pyran-4-yl)ethyl)benzamide]
500 to 1000 nM | < 100 nM | O=C(NCC1(F)CCOCC1)c1ccc(C#Cc2ccccc2F)cc1 [Example 48, 4-((2-fluorophenyl)ethynyl)-N-((4-fluorotetrahydro-2H-pyran-4-yl)methyl)benzamide]
500 to 1000 nM | < 100 nM | O=C(NCC1(CF)CCOCC1)c1ccc(C#Cc2ccccc2F)cc1 [Example 50, N-((4-(fluoromethyl)tetrahydro-2H-pyran-4-yl)methyl)-4-((2-fluorophenyl)ethynyl)benzamide]
1000 to 2000 nM | 500 to 1000 nM | CNC(=O)C1(CNC(=O)c2ccc(C#Cc3ccccc3F)cc2)CCOCC1 [Example 53, 4-((4-((2-fluorophenyl)ethynyl)benzamido)methyl)-N-methyltetrahydro-2H-pyran-4-carboxamide]
100 to 500 nM | < 100 nM | O=C(NCC1CCCCO1)c1ccc(C#Cc2ccccc2F)cc1 (centres unmarked) [Example 54, 4-((2-fluorophenyl)ethynyl)-N-((tetrahydro-2H-pyran-2-yl)methyl)benzamide]
500 to 1000 nM | < 100 nM | O=C(NCC1(O)CCC1)c1ccc(C#Cc2ccccc2F)cc1 [Example 57, 4-((2-fluorophenyl)ethynyl)-N-((1-hydroxycyclobutyl)methyl)benzamide]
500 to 1000 nM | 100 to 500 nM | COC(=O)CCC1(CNC(=O)c2ccc(C#Cc3ccccc3F)cc2)CCCCC1 [Example 59, methyl 3-(1-((4-((2-fluorophenyl)ethynyl)benzamido)methyl)cyclohexyl)propanoate]

From US12435051B2, “Dual modulator of mGluR5 and 5-HT2A receptor, and use thereof” (Vivozon Inc., priority 2020, dated 2025)
